Test results reported in ChEMBL document CHEMBL3132782, “Identification of orally bioavailable small-molecule inhibitors of hematopoietic prostaglandin D2 synthase using X-ray fragment based drug discovery” (Medchemcomm, 2014).
pIC50: −log10 of the molar value. In brackets after ≈: the same amount, converted by molar mass. One block for each compound: values may come before it. Activity calls are given as the source filed them. The calls are words filed in the database; no cut-off is given here.

Experiments:
[1] = biological target: T1, Hematopoietic prostaglandin D synthase (Homo sapiens, UniProt O60760); test: Inhibition of human hematopoietic prostaglandin D2 synthase by fluorescence polarisation assay
T1 sequence (O60760 whole entry): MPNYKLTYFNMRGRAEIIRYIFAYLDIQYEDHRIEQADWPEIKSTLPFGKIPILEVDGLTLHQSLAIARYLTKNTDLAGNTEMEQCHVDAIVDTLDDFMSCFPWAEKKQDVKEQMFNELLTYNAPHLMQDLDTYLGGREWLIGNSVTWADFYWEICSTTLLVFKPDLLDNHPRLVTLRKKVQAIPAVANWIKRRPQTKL

[2] = biological target: T1, Hematopoietic prostaglandin D synthase; test: Inhibition of human hematopoietic prostaglandin D2 synthase at 30 uM by fluorescence polarisation assay
[3] = Aqueous solubility in fed simulated intestinal fluid at pH 6.5; assay type: physicochemical
[4] = Aqueous solubility in water; assay type: physicochemical
[5] = Aqueous solubility in fasted simulated intestinal fluid at pH 6.5; assay type: physicochemical
[6] = Aqueous solubility in simulated gastric fluid at pH 1.6; assay type: physicochemical
[7] = biological target: T1, Hematopoietic prostaglandin D synthase; test: Inhibition of hematopoietic prostaglandin D2 synthase in IgE and IL-5 primed human LAD2 cells assessed as reduction in PGD2 production by mass spectrometry; assay type: cell-based
[8] = biological target: T1, Hematopoietic prostaglandin D synthase; test: Inhibition of human hematopoietic prostaglandin D2 synthase by rapid fire mass spectrometry assay
[9] = biological target: T1, Hematopoietic prostaglandin D synthase; test: Inhibition of human hematopoietic prostaglandin D2 synthase at 100 uM by fluorescence polarisation assay
[10] = Half life in rat at 1 mg/kg, iv or 3 mg/kg, po by LC-MS/MS method; assay type: ADME, organism-based; conditions: in vivo
Rattus norvegicus = test: fCmax in rat at 3 mg/kg, po by LC-MS/MS method; assay type: ADME, organism-based; parameters: dose 3 mg/kg, route oral; conditions: in vivo
[11] = Cmax in rat at 3 mg/kg, po by LC-MS/MS method; assay type: ADME, organism-based; parameters: dose 3 mg/kg, route oral; conditions: in vivo
[12] = AUC (0 to infinity) in rat at 1 mg/kg, iv or 3 mg/kg, po by LC-MS/MS method; assay type: ADME, organism-based; conditions: plasma
[13] = Volume of distribution at steady state in rat at 1 mg/kg, iv or 3 mg/kg, po by LC-MS/MS method; assay type: ADME, organism-based; conditions: in vivo, read-out: Vdss
[14] = Blood clearance in rat at 1 mg/kg, iv or 3 mg/kg, po by LC-MS/MS method; assay type: ADME, organism-based
[15] = Protein binding in rat whole blood at 1 mg/kg, iv or 3 mg/kg, po by LC-MS/MS method; assay type: ADME, organism-based; conditions: read-out: PB (converted)
[16] = biological target: T1, Hematopoietic prostaglandin D synthase; test: Inhibition of human hematopoietic prostaglandin D2 synthase at 10 nM by fluorescence polarisation assay
[17] = Tmax in rat at 3 mg/kg, po by LC-MS/MS method; assay type: ADME, organism-based; parameters: dose 3 mg/kg, route oral; conditions: in vivo
Mus musculus = test: Reduction in PGD2 level in C57/BL6/J mouse peritoneal lavage supernatants at 30 mg/kg, po measured 40 mins after compound 48/80 injection by enzyme immunoassay pre-treated 30 mins before compound 48/80 injection; assay type: functional, organism-based; parameters: dose 30 mg/kg
[18] = Fraction unbound in rat at 1 mg/kg, iv or 3 mg/kg, po by LC-MS/MS method; assay type: ADME, organism-based; conditions: in vivo
[19] = Oral bioavailability in rat at 3 mg/kg by LC-MS/MS method; assay type: ADME, organism-based; conditions: in vivo

SMILES: c1nc(NC2CCCC2)c2cc[nH]c2n1
pIC50 [1]: 6.30

SMILES: Cn1nnnc1N1CCC(NC(=O)c2ccc(-c3cccc(F)c3)nc2)CC1
solubility [3]: 44 µg/mL (≈ 115 µM)
solubility [4]: 16.5 µg/mL (≈ 43.3 µM)
solubility [5]: 31.2 µg/mL (≈ 81.8 µM)
solubility [6]: 48.9 µg/mL (≈ 128 µM)

SMILES: O=C(NC1CCCC1)N1Cc2cc(-c3c[nH]nc3C3CC3)cnc2C1
half-life [10]: 2.2 h
fCmax (Rattus norvegicus): 30 nM
pIC50 [7]: 6.50
Cmax [11]: 196 ng/mL
AUC(0-inf) [12]: 295 ng·h/mL
Vd [13]: 2.8 L/kg
clearance [14]: 33 mL/min/kg
fraction unbound [15]: 0.055
inhibition [16]: 66%
solubility [3]: 136 µg/mL (≈ 403 µM)
pIC50 [8]: 7.40
Tmax [17]: 0.5 h
Activity (Mus musculus): Active
solubility [4]: 52 µg/mL (≈ 154 µM)
fraction unbound [18]: 0.055
pIC50 [1]: > 8.00
solubility [5]: 109 µg/mL (≈ 323 µM)
solubility [6]: 885 µg/mL (≈ 2620 µM)
bioavailability [19]: 19%

SMILES: c1nc(NC2CCCC2)c2cn[nH]c2n1
pIC50 [1]: 5.07

Next, values leading:

inhibition [2]: 52%
SMILES: Cc1n[nH]cc1-c1ccc(C#N)cc1

pIC50 [7]: 5.40
pIC50 [8]: 6.30
pIC50 [1]: 7.40
SMILES: CCNC(=O)N1Cc2cc(-c3c[nH]nc3C3CC3)cnc2C1

inhibition [9]: 58%
SMILES: c1cncc(-c2cn[nH]c2)c1

solubility [3]: < 1 µg/mL
solubility [4]: 4.4 µg/mL (≈ 12.7 µM)
solubility [5]: 4.6 µg/mL (≈ 13.2 µM)
solubility [6]: 203 µg/mL (≈ 584 µM)
SMILES: Cc1cn(NC(=O)c2cnc(-c3ccccn3)nc2)c2ccc(F)cc12

pIC50 [1]: 4.77
SMILES: c1cncc(-c2c[nH]nc2C2CC2)c1
